Experimental data reported in paper PMC9225722, “Synthesis and biological evaluation of thieno[3,2-c]pyrazol-3-amine derivatives as potent glycogen synthase kinase 3β inhibitors for Alzheimer’s disease” (Journal of Enzyme Inhibition and Medicinal Chemistry, 2022).

Assays:
GSK-3β = GSK-3β (Homo sapiens, UniProt P49841); assay: GSK-3β kinase assay (calliper mobility shift assay); assay type: biochemical; conditions: for IC50: mean ± SD from two separate experiments, calliper mobility shift assay; for fold less active than 16b (GSK-3β inhibition): compared with 16b
[1] = test system: phosphorylation of GSK-3β at Ser9; assay: Western blot of p-GSK-3β (Ser9) in SH-SY5Y cells; assay type: cell-based, human; conditions: LiCl positive control, concentration not given; 2.5 h; control 0.33
Excerpt: GSK-3β is activated by phosphorylation at Tyr216 and is inhibited by phosphorylation at Ser9 [48]. As one of the substrates of Akt (protein kinase B), GSK-3 can inhibit Akt[49]. The inhibition of GSK-3β increases the p-Akt expression and activates the PI3K/Akt pathway, and that, in turn, phosphorylates the GSK-3β at the Ser9 site[50]^,[51]. […] As shown in Figure 6(A), LiCl greatly promoted GSK-3β phosphorylation at Ser9 (p-GSK-3β/GAPDH: 0.60 vs 0.33). […] Therefore, in cellular level, compound 16b was confirmed to have a direct effect on GSK-3β.
Figure 6. (A) The effect of 16b on phosphorylation of GSK-3β at Ser9; (B) the effect of 16b on β-catenin abundance. Protein expressions were detected by immunoblot analysis with a specific antibody. Values are reported as the mean ± SD of three independent experiments. *p < 0.05, **p < 0.01, ***p < 0.001 vs control.
SH-SY5Y cells (1 × 10^6) were seeded in 12-well plates (Corning, Los Altos, MA, USA) and incubated with compound 16b or LiCl at the indicated concentrations for 2.5 h at 37 °C in 5% CO2. At the end of incubation, cells were lysed by addition of ice-cold RIPA buffer containing a protease inhibitor cocktail. The protein quantification was determined using a BCA protein assay kit (Jiangsu KeyGEN BioTECH Co., Ltd., Nanjing, China). Cellular lysates were mixed with an equal volume of SDS (sodium dodecyl sulfate) loading buffer (Jiangsu KeyGEN BioTECH Co., Ltd., Nanjing, China) and separated by electrophoresis (Bio-rad Power Supplies Basic, Shanghai, China) in polyacrylamide gel. Proteins were transferred from acrylamide gels to nitrocellulose membranes and blocked in a blocking buffer (PBS, 5% non-fat milk) for 1.5 to 2 h at 20 °C. […] The blots were washed by TBST for 20 min and detected with ECL chemiluminescent reagent (Jiangsu KeyGEN BioTECH Co., Ltd., Nanjing, China) for 3 min. Pixel intensity was quantitated using gel imaging system (SYNGENE G:BOX/iChemi XR5, ISS, San Diego, CA, US) and Gel-Pro32 software (Media Cybernetics, Bethesda, MD, USA). […]

GSK-3β, sequence (P49841 whole entry): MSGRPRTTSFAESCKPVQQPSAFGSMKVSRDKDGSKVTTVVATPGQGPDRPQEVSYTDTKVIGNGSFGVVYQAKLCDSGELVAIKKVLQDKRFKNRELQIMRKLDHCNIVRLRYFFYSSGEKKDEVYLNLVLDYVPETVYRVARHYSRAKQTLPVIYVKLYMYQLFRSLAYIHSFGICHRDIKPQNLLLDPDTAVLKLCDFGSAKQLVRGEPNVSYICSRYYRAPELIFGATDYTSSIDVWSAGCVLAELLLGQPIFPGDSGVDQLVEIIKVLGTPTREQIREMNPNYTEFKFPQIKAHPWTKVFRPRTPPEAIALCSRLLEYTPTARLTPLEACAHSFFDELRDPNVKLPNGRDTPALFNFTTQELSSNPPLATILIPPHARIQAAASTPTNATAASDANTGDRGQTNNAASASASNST

| Structure (SMILES) | IC50 (GSK-3β) [nM] | melting point [°C] | further results |
| --- | --- | --- | --- |
| CCCC(=O)Nc1n[nH]c2cc(-c3cccnc3)sc12 [Compound 16c, N-(5-(pyridin-3-yl)-1H-thieno[3,2-c]pyrazol-3-yl)butyramide] | 36 ± 1.7 | 238 to 240 | fold less active than 16b (GSK-3β inhibition) (GSK-3β): about 10 fold |
| CCCC(=O)Nc1n[nH]c2cc(-c3cncc(-c4ccccc4)c3)sc12 [Compound 17c, N-(5-(5-Phenylpyridin-3-yl)-1H-thieno[3,2-c]pyrazol-3-yl)butyramide] | 37 ± 1.3 | > 240 | – |
| [Cl-].[Li+] [LiCl, reference compound] | – | – | p-GSK-3β/GAPDH ratio (Ser9) [1]: 0.60 |
| O=C(Nc1n[nH]c2cc(-c3cccnc3)sc12)c1ccccc1 [Compound 16e, N-(5-(pyridin-3-yl)-1H-thieno[3,2-c]pyrazol-3-yl)benzamide] | 33 ± 1.6 | > 240 | fold less active than 16b (GSK-3β inhibition) (GSK-3β): about 10 fold |
| O=C(Nc1n[nH]c2cc(-c3cccnc3)sc12)C1CC1 [Compound 16a, N-(5-(pyridin-3-yl)-1H-thieno[3,2-c]pyrazol-3-yl)cyclopropanecarboxamide] | 4.4 ± 0.2 | 224 to 226 | – |
| CC(C)C(=O)Nc1n[nH]c2cc(-c3cncc(-c4ccccc4)c3)sc12 [Compound 17b, N-(5-(5-Phenylpyridin-3-yl)-1H-thieno[3,2-c]pyrazol-3-yl)isobutyramide] | 14 ± 0.6 | > 240 | fold less active than 16b (GSK-3β inhibition) (GSK-3β): about 4 fold |
| O=C(Nc1n[nH]c2cc(-c3cncc(-c4ccccc4)c3)sc12)C1CC1 [Compound 17a, N-(5-(5-Phenylpyridin-3-yl)-1H-thieno[3,2-c]pyrazol-3-yl)cyclopropanecarboxamide] | 20 ± 1.1 | > 240 | fold less active than 16a (GSK-3β inhibition) (GSK-3β; compared with 16a): about 4 fold |
| CCCS(=O)(=O)Nc1n[nH]c2cc(-c3cccnc3)sc12 [Compound 16d, N-(5-(pyridin-3-yl)-1H-thieno[3,2-c]pyrazol-3-yl)propane-1-sulphonamide] | 1390 ± 55.2 | 208 to 210 | GSK-3β inhibitory activity (in words) (GSK-3β): very weak |
| CCCS(=O)(=O)Nc1n[nH]c2cc(-c3cncc(-c4ccccc4)c3)sc12 [Compound 17d, N-(5-(5-Phenylpyridin-3-yl)-1H-thieno[3,2-c]pyrazol-3-yl)propane-1-sulphonamide] | > 5000 | 112 to 114 | GSK-3β inhibitory activity (in words) (GSK-3β): not active |

The next lines start with results.

| IC50 (GSK-3β) [nM] | melting point [°C] | Structure (SMILES) | further results |
| --- | --- | --- | --- |
| 195 ± 10.4 | > 240 | CC(C)C(=O)Nc1n[nH]c2cc(-c3cnccc3-c3ccc4ccccc4c3)sc12 [Compound 18n, N-(5-(4-(naphthalen-2-yl)pyridin-3-yl)-1H-thieno[3,2-c]pyrazol-3-yl)isobutyramide] | fold less active than 18a (GSK-3β inhibition) (GSK-3β; compared with 18a): about 2 fold |
| 84 ± 3.2 | > 240 | CC(C)C(=O)Nc1n[nH]c2cc(-c3cnccc3-c3ccccc3)sc12 [Compound 18a, N-(5-(4-Phenylpyridin-3-yl)-1H-thieno[3,2-c]pyrazol-3-yl)isobutyramide] | – |
| 64 ± 2.3 | > 240 | Cc1ccccc1-c1ccncc1-c1cc2[nH]nc(NC(=O)C(C)C)c2s1 [Compound 18b, N-(5-(4-(2-Methylphenyl)pyridin-3-yl)-1H-thieno[3,2-c]pyrazol-3-yl)isobutyramide] | – |
| 153 ± 6.6 | 236 to 238 | Cc1cccc(-c2ccncc2-c2cc3[nH]nc(NC(=O)C(C)C)c3s2)c1 [Compound 18c, N-(5-(4-(3-Methylphenyl)pyridin-3-yl)-1H-thieno[3,2-c]pyrazol-3-yl)isobutyramide] | – |
| 107 ± 6.1 | 202 to 204 | CC(C)C(=O)Nc1n[nH]c2cc(-c3cnccc3-c3cccc(C(F)(F)F)c3)sc12 [Compound 18k, N-(5-(4-(3-(trifluoromethyl)phenyl)pyridin-3-yl)-1H-thieno[3,2-c]pyrazol-3-yl)isobutyramide] | – |
| 15 ± 0.3 | > 240 | CC(C)C(=O)Nc1n[nH]c2cc(-c3cnccc3-c3ccc(F)cc3)sc12 [Compound 18j, N-(5-(4-(4-Fluorophenyl)pyridin-3-yl)-1H-thieno[3,2-c]pyrazol-3-yl)isobutyramide] | – |
| 158 ± 8.9 | > 240 | CC(C)C(=O)Nc1n[nH]c2cc(-c3cnccc3-c3ccc(C(F)(F)F)cc3)sc12 [Compound 18l, N-(5-(4-(4-(trifluoromethyl)phenyl)pyridin-3-yl)-1H-thieno[3,2-c]pyrazol-3-yl)isobutyramide] | – |
| 105 ± 5.2 | > 240 | COc1ccc(-c2ccncc2-c2cc3[nH]nc(NC(=O)C(C)C)c3s2)cc1 [Compound 18g, N-(5-(4-(4-Methoxyphenyl)pyridin-3-yl)-1H-thieno[3,2-c]pyrazol-3-yl)isobutyramide] | – |
| 99 ± 4.8 | 239 to 240 | Cc1ccc(-c2ccncc2-c2cc3[nH]nc(NC(=O)C(C)C)c3s2)cc1 [Compound 18d, N-(5-(4-(4-Methylphenyl)pyridin-3-yl)-1H-thieno[3,2-c]pyrazol-3-yl)isobutyramide] | – |
| 64 ± 2.7 | 213 to 215 | COc1ccccc1-c1ccncc1-c1cc2[nH]nc(NC(=O)C(C)C)c2s1 [Compound 18e, N-(5-(4-(2-Methoxyphenyl)pyridin-3-yl)-1H-thieno[3,2-c]pyrazol-3-yl)isobutyramide] | – |
| 94 ± 3.5 | > 240 | CC(C)C(=O)Nc1n[nH]c2cc(-c3cnccc3-c3ccccc3F)sc12 [Compound 18h, N-(5-(4-(2-Fluorophenyl)pyridin-3-yl)-1H-thieno[3,2-c]pyrazol-3-yl)isobutyramide] | – |
| 113 ± 8.6 | 212 to 214 | COc1cccc(-c2ccncc2-c2cc3[nH]nc(NC(=O)C(C)C)c3s2)c1 [Compound 18f, N-(5-(4-(3-Methoxyphenyl)pyridin-3-yl)-1H-thieno[3,2-c]pyrazol-3-yl)isobutyramide] | – |
| 387 ± 21.2 | 159 to 161 | CC(C)C(=O)Nc1n[nH]c2cc(-c3cnccc3-c3ccc(-c4ccccc4)cc3)sc12 [Compound 18m, N-(5-(4-([1,1'-Biphenyl]-4-yl)pyridin-3-yl)-1H-thieno[3,2-c]pyrazol-3-yl)isobutyramide] | – |
| 173 ± 6.8 | > 240 | CC(C)C(=O)Nc1n[nH]c2cc(-c3cnccc3-c3cccc(F)c3)sc12 [Compound 18i, N-(5-(4-(3-Fluorophenyl)pyridin-3-yl)-1H-thieno[3,2-c]pyrazol-3-yl)isobutyramide] | – |
